# Reference: article PMC3486838 (PLoS ONE, 2012)
# Where two headings read alike, the source gives them in different places.
# Assays:
# human CYP11B2 = target: T1, human CYP11B2 (Homo sapiens, UniProt P19099); assay: Inhibition of CYP11B2 in V79 MZh cells expressing the enzyme; format: cell-based; details: for SF: selectivity factor = IC50 CYP11B1/IC50 CYP11B2: CYP11B2 over CYP11B1; for IC50: substrate deoxycorticosterone, 100 nM
# T1 construct: expressed in transfected cells; host or cells: V79MZh cells
# T1 sequence (P19099 25-503): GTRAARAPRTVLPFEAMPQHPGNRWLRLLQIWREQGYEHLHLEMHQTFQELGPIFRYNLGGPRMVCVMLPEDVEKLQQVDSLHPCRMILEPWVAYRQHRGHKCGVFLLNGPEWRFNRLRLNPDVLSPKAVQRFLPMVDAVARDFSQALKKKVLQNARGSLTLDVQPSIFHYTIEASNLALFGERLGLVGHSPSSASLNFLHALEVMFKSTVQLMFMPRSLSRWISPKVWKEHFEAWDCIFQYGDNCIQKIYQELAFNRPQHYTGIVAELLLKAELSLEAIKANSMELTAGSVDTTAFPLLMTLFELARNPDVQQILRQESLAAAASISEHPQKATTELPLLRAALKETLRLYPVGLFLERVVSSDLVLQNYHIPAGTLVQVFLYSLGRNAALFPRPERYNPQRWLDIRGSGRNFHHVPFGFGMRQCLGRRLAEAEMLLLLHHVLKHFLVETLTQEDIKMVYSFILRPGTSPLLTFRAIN
# Procedure: (§1) V79MZh cells expressing human CYP11B1 [45] or CYP11B2 [44] were incubated with [^14C]-11-deoxycorticosterone as substrate. The assay was performed as previously described.
# human CYP11B1 = target: T2, human CYP11B1 (Homo sapiens, UniProt P15538); assay: Inhibition of CYP11B1 in V79 MZh cells expressing the enzyme; format: cell-based
# T2 construct: expressed in transfected cells; host or cells: V79MZh cells
# T2 sequence (P15538 25-503): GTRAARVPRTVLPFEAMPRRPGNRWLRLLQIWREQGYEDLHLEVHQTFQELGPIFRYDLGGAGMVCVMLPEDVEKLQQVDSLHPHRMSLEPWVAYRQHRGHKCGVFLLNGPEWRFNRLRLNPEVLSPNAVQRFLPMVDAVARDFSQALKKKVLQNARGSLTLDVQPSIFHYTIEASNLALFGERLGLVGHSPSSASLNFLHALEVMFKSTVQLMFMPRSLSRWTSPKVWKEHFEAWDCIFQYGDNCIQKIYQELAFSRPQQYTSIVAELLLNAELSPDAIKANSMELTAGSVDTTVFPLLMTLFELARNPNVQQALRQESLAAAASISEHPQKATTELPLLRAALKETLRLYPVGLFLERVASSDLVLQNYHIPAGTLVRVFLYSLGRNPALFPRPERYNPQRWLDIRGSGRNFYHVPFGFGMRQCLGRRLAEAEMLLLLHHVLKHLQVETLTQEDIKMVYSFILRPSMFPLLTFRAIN
# Procedure: as §1
# [1] = target: T3, human hepatic enzyme CYP1A2 (Homo sapiens, UniProt P05177); assay: Inhibition of human hepatic CYP1A2, recombinant enzyme (Supersomes); format: biochemical
# T3 sequence (P05177 1-516): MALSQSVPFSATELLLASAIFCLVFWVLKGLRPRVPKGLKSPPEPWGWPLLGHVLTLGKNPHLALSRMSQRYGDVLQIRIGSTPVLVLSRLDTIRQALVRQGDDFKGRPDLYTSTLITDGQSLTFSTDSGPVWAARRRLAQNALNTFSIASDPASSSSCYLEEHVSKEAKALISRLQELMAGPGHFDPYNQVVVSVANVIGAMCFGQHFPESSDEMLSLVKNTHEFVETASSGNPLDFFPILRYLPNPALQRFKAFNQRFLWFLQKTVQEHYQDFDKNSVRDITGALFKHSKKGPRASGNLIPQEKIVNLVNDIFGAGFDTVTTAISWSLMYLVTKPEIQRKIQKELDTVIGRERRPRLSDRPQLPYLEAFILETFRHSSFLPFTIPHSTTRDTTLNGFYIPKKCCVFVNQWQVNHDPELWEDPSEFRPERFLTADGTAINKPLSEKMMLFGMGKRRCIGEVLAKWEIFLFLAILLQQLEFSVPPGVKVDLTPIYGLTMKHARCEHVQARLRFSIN
# [2] = Hamster fibroblasts (V79 MZh) expressing human CYP11B2, read-out: 11B2 IC50
# [3] = Hamster fibroblasts (V79 MZh) expressing human CYP11B1, substrate deoxycorticosterone, 100 nM, read-out: 11B1 IC50
# [4] = recombinantly expressed enzyme from baculovirus infected insect microsomes (Supersomes)
SMILES,SF: selectivity factor = IC50 CYP11B1/IC50 CYP11B2 (human CYP11B2),IC50 (human CYP11B2; [2]) [nM],IC50 (human CYP11B1; [3]) [nM],CYP1A2 inhibition at 2 µM [1],"IC50 [1, 4] [µM]",melting point [°C],IC50 ([1]; recombinant CYP1A2) [µM],"IC50 (human CYP11B2; 11B2 IC50, Hamster fibroblasts (V79 MZh) expressing human CYP11B2) [nM]",IC50 (human CYP11B1) [nM]
"CC12CCC(c3cccnc3)=CC1=CCCC2=O (racemic) [Compound 17, (±)-8a-Methyl-6-pyridin-3-yl-3,7,8,8a-tetrahydro-2H-naphthalen-1-one]",2,462 ± 36,1020 ± 78,–,–,–,–,–,–
"c1cncc(C2CCC3CCCCC3C2)c1 (stereo not drawn) [Compound 1, 3-(Decahydro-naphthalen-2-yl)-pyridine]",4,157 ± 14,611 ± 34,–,–,–,–,–,–
"O=C1CC2C=C(c3cccnc3)CC2C1 (stereo not drawn) [Compound 2, 5-Pyridin-3-yl-3,3a,4,6a-tetrahydro-1H-pentalen-2-one]",8,34 ± 5,282 ± 17,no inhibition,> 100,–,–,–,–
"O=C1CC2CC(c3cccnc3)CC2C1 (stereo not drawn) [Compound 3, 5-Pyridin-3-yl-hexahydro-pentalen-2-one]",–,258 ± 22,306 ± 25,–,–,–,–,–,–
"C=C1CC2C=C(c3cccnc3)CC2C1 (stereo not drawn) [Compound 4, 3-(5-Methylidene-1,3a,4,5,6,6a-hexahydro-pentalen-2-yl)-pyridine]",34,6 ± 2,205 ± 12,–,2.17 ± 0.097,–,–,–,–
"OC1CC2C=C(c3cccnc3)CC2C1 (stereo not drawn) [Compound 5, 5-Pyridin-3-yl-1,2,3,3a,4,6a-hexahydro-pentalen-2-ol]",3,225 ± 21,663 ± 27,–,–,110 to 112,–,–,–
"OC1CC2CC(c3cccnc3)CC2C1 (stereo not drawn) [Compound 6, 5-Pyridin-3-yl-octahydro-pentalen-2-ol]",0.4,347 ± 35,133 ± 29,–,–,–,–,–,–
"O=C1CCC=C(c2cccnc2)CCC1 [Compound 7, 5-Pyridin-3-yl-cyclooct-4-enone]",4,205 ± 16,851 ± 58,–,–,–,–,–,–
"O=C1CCCC(c2cccnc2)CCC1 [Compound 8, 5-Pyridin-3-yl-cyclooctanone]",3,443 ± 36,1350 ± 79,–,–,–,–,–,–
"OC1CCC=C(c2cccnc2)CCC1 (stereo not drawn) [Compound 9, 5-Pyridin-3-yl-cyclooct-4-enol]",2,141 ± 11,348 ± 25,–,–,–,–,–,–
"OC1CCCC(c2cccnc2)CCC1 (stereo not drawn) [Compound 10, (endo/exo)-5-Pyridin-3-yl-cyclooctanol]",–,294 ± 23,246 ± 36,–,–,–,–,–,–
"C1=C(c2cccnc2)CCCCCC1 [Compound 11, 3-Cyclooct-1-enyl-pyridine]",2,81 ± 7,195 ± 15,–,> 100,–,–,–,–
"c1cncc(C2CCCCCCC2)c1 [Compound 12, 3-Cyclooctyl-pyridine]",50,21 ± 5,1050 ± 67,no inhibition,> 100,–,–,–,–
"C1=C(c2cccnc2)CCCCCCCC1 [Compound 13, 3-Cyclodec-1-enyl-pyridine]",12,21 ± 3,258 ± 16,no inhibition,> 100,–,–,–,–
"c1cncc(C2CCCCCCCCC2)c1 [Compound 14, 3-Cyclodecyl-pyridine]",40,22 ± 2,872 ± 79,–,> 100,–,–,–,–
"C1=C(c2cccnc2)CCCCCCCCCC1 [Compound 15, 3-Cyclododec-1-enyl-pyridine]",–,1170 ± 97,> 10000,–,–,–,–,–,–
"c1cncc(C2CCCCCCCCCCC2)c1 [Compound 16, 3-Cyclododecyl-pyridine]",3,636 ± 32,1770 ± 56,–,–,–,–,–,–
"C1=C(c2cccnc2)C2CCC1C2 (stereo not drawn) [Compound 18, 3-Bicyclo[2.2.1]hept-2-en-2-yl-pyridine]",3,889 ± 57,2130 ± 113,–,–,–,–,–,–
"c1cncc(C2CC3CCC2C3)c1 (stereo not drawn) [Compound 19, (endo/exo)-3-Bicyclo[2.2.1]hept-2-yl-pyridine]",–,99 ± 21,137 ± 12,–,44.43 ± 0.388,–,44,–,–
"CN1C2C=C(c3cccnc3)CC1CC2 (stereo not drawn) [Compound 20, 8-Methyl-3-pyridin-3-yl-8-aza-bicyclo[3.2.1]oct-2-ene]",–,2440 ± 88,> 5000,–,–,–,–,–,–
"CN1C2CCC1CC(c1cccnc1)C2 (stereo not drawn) [Compound 21, (endo/exo)-8-Methyl-3-pyridin-3-yl-8-aza-bicyclo[3.2.1]octane]",–,–,–,–,–,–,–,2830 ± 135,> 10000
"COc1ccc2cc(-c3cccnc3)ccc2c1 [I, reference compound]",–,–,–,–,0.041 ± 0.005,–,–,–,–
"COC1CCc2cc(-c3cccnc3)ccc2C1 (stereo not drawn) [II, reference compound]",347,3 ± 1,1140 ± 78,–,0.44 ± 0.011,–,–,–,–
"COc1ccc2c(c1)CC(C)C(c1cccnc1)=C2 (stereo not drawn) [III, reference compound]",79,3 ± 1,248 ± 19,–,0.741 ± 0.055,–,–,–,–
